Activity calls are given as the source filed them. The rule behind the calls is not given here. Non-standard residues stand in square brackets, D forms with d. Residues, ends and D or L forms follow the SMILES beside them. *: point of attachment. X1 = OC[C@H]1O[C@@H](O[C@H]2[C@H](O)[C@@H](O)[C@@H](*)O[C@@H]2CO)[C@H](O)[C@@H](O)[C@H]1O; βGal = OC[C@H]1O[C@@H](*)[C@H](O)[C@@H](O)[C@H]1O; X2 = OC[C@H]1O[C@@H](N*)[C@H](O)[C@@H](O)[C@H]1O; Cha = N[C@@H](CC1CCCCC1)C(=O)O
Assays:
[1] = molecular target: Galectin-3 (Homo sapiens) (UniProt P17931); test: Inhibition of carbohydrate-dependent human galectin3 binding at 10 mM by solid phase assay
Sequence of Galectin-3 (Homo sapiens) (P17931 whole entry): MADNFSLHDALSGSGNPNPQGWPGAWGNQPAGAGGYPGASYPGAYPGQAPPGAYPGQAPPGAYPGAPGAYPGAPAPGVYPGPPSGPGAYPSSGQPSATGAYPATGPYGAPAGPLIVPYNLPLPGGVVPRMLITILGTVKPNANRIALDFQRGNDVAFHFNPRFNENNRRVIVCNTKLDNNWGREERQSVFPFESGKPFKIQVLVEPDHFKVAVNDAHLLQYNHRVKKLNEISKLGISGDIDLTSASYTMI

[2] = test system: SW480; test: Inhibition of carbohydrate-dependent galectin3 binding to human SW480 cell surface at 1mM; format: functional; parameters: scale not given: the % may be the effect or the level left
[3] = molecular target: Galectin-1 (Homo sapiens) (UniProt P09382); test: Inhibition of carbohydrate-dependent human galectin1 binding at 10 mM by solid phase assay
Sequence of Galectin-1 (Homo sapiens) (P09382 whole entry): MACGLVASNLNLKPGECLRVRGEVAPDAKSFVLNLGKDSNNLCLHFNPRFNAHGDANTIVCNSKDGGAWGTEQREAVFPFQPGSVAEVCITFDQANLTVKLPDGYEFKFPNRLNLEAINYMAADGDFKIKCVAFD

[4] = test system: CAPAN-1; test: Inhibition of carbohydrate-dependent galectin1 binding to human Capan1 cell surface at 2mM; format: functional; parameters: scale not given: the % may be the effect or the level left
[5] = test system: SW480; test: Inhibition of carbohydrate-dependent galectin3 binding to human SW480 cell surface at 2mM; format: functional, cell-based; parameters: scale not given: the % may be the effect or the level left
[6] = test system: SW480; test: Inhibition of carbohydrate-dependent galectin3 binding to human SW480 cell surface at 0.5mM; format: functional, cell-based; parameters: scale not given: the % may be the effect or the level left
[7] = test system: SW480; test: Inhibition of carbohydrate-dependent galectin3 binding to human SW480 cell surface at 5 mM; format: functional, cell-based; parameters: scale not given: the % may be the effect or the level left

Row | inhibition [1] | inhibition [3] | Molecule | other results
1 | 44% |  | CC[C@H](C)[C@H](NC(=O)[C@H](CCCNC(=N)N)NC(=O)[C@@H](NC(=O)[C@H](Cc1ccccc1)NC(=O)[C@@H](NC(=O)[C@@H](N)CC(N)=O)[C@@H](C)O[C@H]1O[C@H](CO)[C@@H](O[C@@H]2O[C@H](CO)[C@H](O)[C@H](O)[C@H]2O)[C@H](O)[C@H]1O)C(C)C)C(=O)O (H-NT(X1)FVRI-OH) | Activity [2]: 40%
2 |  | 67% | CC(C)[C@H](NC(=O)[C@H](CC1CCCCC1)NC(=O)[C@H](CC(N)=O)NC(=O)[C@H](CC1CCCCC1)NC(=O)[C@@H]1CCCN1)C(=O)N[C@@H](Cc1ccc(O)cc1)C(=O)O (H-P[Cha]N[Cha]VY-OH) | 
3 | inactive |  | CC(C)[C@H](NC(=O)[C@H](Cc1cnc[nH]1)NC(=O)[C@@H](N)Cc1cnc[nH]1)C(=O)N[C@@H](Cc1ccc(O)cc1)C(=O)N[C@@H](Cc1ccc(O)cc1)C(=O)N[C@@H](Cc1cnc[nH]1)C(=O)O (H-HHVYYH-OH) | 
4 | 28% |  | CSCC[C@H](NC(=O)[C@@H]1CCCN1C(=O)[C@H](CCCNC(=N)N)NC(=O)[C@H](CC1CCCCC1)NC(=O)[C@@H](N)CC1CCCCC1)C(=O)N[C@@H](CCCNC(=N)N)C(=O)O (H-[Cha][Cha]RPMR-OH) | 
5 |  | inactive | CC[C@H](C)[C@H](NC(=O)[C@@H]1CCCN1)C(=O)N[C@@H](Cc1ccccc1)C(=O)N[C@H](C(=O)N[C@@H](CCCNC(=N)N)C(=O)N[C@@H](CCCNC(=N)N)C(=O)O)[C@@H](C)O[C@H]1O[C@H](CO)[C@@H](O[C@@H]2O[C@H](CO)[C@H](O)[C@H](O)[C@H]2O)[C@H](O)[C@H]1O (H-PIFT(X1)RR-OH) | 
6 | inactive | 17% | OC[C@H]1O[C@@H](O)[C@H](O)[C@@H](O)[C@H]1O | 
7 |  | inactive | CC[C@H](C)[C@H](NC(=O)[C@@H](NC(=O)[C@H](CCCNC(=N)N)NC(=O)[C@H](CCCNC(=N)N)NC(=O)[C@H](Cc1ccc(O)cc1)NC(=O)[C@H](C)N)[C@@H](C)O[C@H]1O[C@H](CO)[C@@H](O[C@@H]2O[C@H](CO)[C@H](O)[C@H](O)[C@H]2O)[C@H](O)[C@H]1O)C(=O)O (H-AYRRT(X1)I-OH) | 
8 |  | inactive | CC[C@H](C)[C@H](NC(=O)[C@@H](N)[C@@H](C)O[C@@H]1O[C@H](CO)[C@H](O)[C@H](O)[C@H]1O)C(=O)N[C@H](C(=O)N[C@@H](CCC(N)=O)C(=O)N[C@@H](CC1CCCCC1)C(=O)N[C@@H](Cc1ccc(O)cc1)C(=O)O)[C@@H](C)CC (H-T(βGal)IIQ[Cha]Y-OH) | Activity [2]: 77%
9 |  | inactive | CC[C@H](C)[C@H](NC(=O)[C@@H](NC(=O)[C@@H](N)CC1CCCCC1)C(C)C)C(=O)N[C@@H](CC(=O)N[C@@H]1O[C@H](CO)[C@H](O)[C@H](O)[C@H]1O)C(=O)N[C@@H](Cc1ccc(O)cc1)C(=O)N[C@@H](CCC(N)=O)C(=O)O (H-[Cha]VID(X2)YQ-OH) | 

Further lines, the molecule ahead of its results:

Row | Molecule | inhibition [1] | inhibition [3] | other results
10 | CC(C)[C@H](NC(=O)[C@@H](N)CCCNC(=N)N)C(=O)N[C@@H](Cc1cnc[nH]1)C(=O)N[C@@H](Cc1ccc(O)cc1)C(=O)N[C@H](C(=O)N[C@@H](CCCNC(=N)N)C(=O)O)[C@@H](C)O[C@H]1O[C@H](CO)[C@@H](O[C@@H]2O[C@H](CO)[C@H](O)[C@H](O)[C@H]2O)[C@H](O)[C@H]1O (H-RVHYT(X1)R-OH) | inactive |  | Activity [2]: 35%
11 | C[C@H](NC(=O)[C@@H](N)CO)C(=O)N[C@@H](CO)C(=O)N[C@@H](CO)C(=O)N[C@H](C(=O)N[C@@H](CCCNC(=N)N)C(=O)O)[C@@H](C)O[C@H]1O[C@H](CO)[C@@H](O[C@@H]2O[C@H](CO)[C@H](O)[C@H](O)[C@H]2O)[C@H](O)[C@H]1O (H-SASST(X1)R-OH) |  | 22% | 
12 | CC[C@H](C)[C@H](N)C(=O)N[C@@H](Cc1ccccc1)C(=O)N[C@@H](CCCNC(=N)N)C(=O)N[C@@H](CC1CCCCC1)C(=O)N[C@@H](CCCNC(=N)N)C(=O)N[C@@H](Cc1ccc(O)cc1)C(=O)O (H-IFR[Cha]RY-OH) |  | 70% | 
13 | CSCC[C@H](NC(=O)[C@@H](N)[C@@H](C)O[C@H]1O[C@H](CO)[C@@H](O[C@@H]2O[C@H](CO)[C@H](O)[C@H](O)[C@H]2O)[C@H](O)[C@H]1O)C(=O)N[C@@H](CCCNC(=N)N)C(=O)N[C@@H](C)C(=O)N[C@H](C(=O)N[C@@H](CC1CCCCC1)C(=O)O)[C@@H](C)O[C@H]1O[C@H](CO)[C@@H](O[C@@H]2O[C@H](CO)[C@H](O)[C@H](O)[C@H]2O)[C@H](O)[C@H]1O |  | 38% | Activity [4]: 22%
14 | C[C@@H](O)[C@H](NC(=O)[C@H](Cc1ccc(O)cc1)NC(=O)[C@H](CC1CCCCC1)NC(=O)[C@H](Cc1cnc[nH]1)NC(=O)[C@H](CC1CCCCC1)NC(=O)[C@@H](N)Cc1ccc(O)cc1)C(=O)O |  | 9% | 
15 | C[C@H](NC(=O)[C@@H](N)[C@@H](C)O[C@H]1O[C@H](CO)[C@@H](O[C@@H]2O[C@H](CO)[C@H](O)[C@H](O)[C@H]2O)[C@H](O)[C@H]1O)C(=O)N[C@@H](CC(N)=O)C(=O)N[C@@H](Cc1ccc(O)cc1)C(=O)N[C@H](C(=O)N[C@@H](CCCNC(=N)N)C(=O)O)[C@@H](C)O[C@H]1O[C@H](CO)[C@@H](O[C@@H]2O[C@H](CO)[C@H](O)[C@H](O)[C@H]2O)[C@H](O)[C@H]1O | 15% |  | 
16 | O=C(O)[C@H](Cc1ccccc1)NC(=O)[C@H](Cc1ccccc1)NC(=O)[C@H](Cc1ccccc1)NC(=O)[C@H](Cc1ccccc1)NC(=O)[C@H](Cc1ccccc1)NC(=O)[C@@H]1CCCN1 (H-PFFFFF-OH) | 76% |  | 
17 | CC(C)[C@H](NC(=O)[C@@H](NC(=O)[C@@H]1CCCN1)[C@@H](C)O[C@H]1O[C@H](CO)[C@@H](O[C@@H]2O[C@H](CO)[C@H](O)[C@H](O)[C@H]2O)[C@H](O)[C@H]1O)C(=O)N[C@@H](C)C(=O)N1CCC[C@H]1C(=O)N[C@@H](CCCNC(=N)N)C(=O)O (H-PT(X1)VAPR-OH) | inactive |  | 
18 | CC[C@H](C)[C@H](NC(=O)[C@H](Cc1ccccc1)NC(=O)[C@H](CCCNC(=N)N)NC(=O)[C@H](CCCNC(=N)N)NC(=O)[C@H](CC1CCCCC1)NC(=O)[C@@H](N)[C@@H](C)O[C@H]1O[C@H](CO)[C@@H](O[C@@H]2O[C@H](CO)[C@H](O)[C@H](O)[C@H]2O)[C@H](O)[C@H]1O)C(=O)O (H-T(X1)[Cha]RRFI-OH) |  | inactive | Activity [2]: 34%
19 | CC[C@H](C)[C@H](NC(=O)[C@@H](NC(=O)[C@H](CCCNC(=N)N)NC(=O)[C@@H]1CCCN1C(=O)[C@H](CCCNC(=N)N)NC(=O)[C@@H](N)Cc1ccccc1)[C@@H](C)O[C@H]1O[C@H](CO)[C@@H](O[C@@H]2O[C@H](CO)[C@H](O)[C@H](O)[C@H]2O)[C@H](O)[C@H]1O)C(=O)O (H-FRPRT(X1)I-OH) |  | 3% | Activity [4]: 12%
20 | CC[C@H](C)[C@H](NC(=O)[C@@H](NC(=O)[C@@H]1CCCN1)[C@@H](C)O)C(=O)N[C@@H](Cc1ccccc1)C(=O)N[C@@H](Cc1ccccc1)C(=O)N[C@@H](Cc1ccccc1)C(=O)O (H-PTIFFF-OH) |  | inactive | 
21 | LACTOSE, ANHYDROUS | 44% | 54% | Activity [5]: 24%; Activity [6]: 43%; Activity [2]: 44%; Activity [7]: 10%
22 | CSCC[C@H](N)C(=O)N[C@@H](Cc1ccccc1)C(=O)N[C@H](C(=O)N[C@@H](CC1CCCCC1)C(=O)N[C@@H](CC1CCCCC1)C(=O)N[C@@H](CCCNC(=N)N)C(=O)O)C(C)C (H-MFV[Cha][Cha]R-OH) |  | 22% | 
23 | CC[C@H](C)[C@H](NC(=O)[C@H](Cc1ccccc1)NC(=O)[C@H](Cc1ccccc1)NC(=O)[C@@H]1CCCN1)C(=O)N[C@@H](CO)C(=O)N[C@@H](CCCNC(=N)N)C(=O)O (H-PFFISR-OH) |  | 9% | Activity [2]: 63%
24 | CC[C@H](C)[C@H](NC(=O)[C@H](Cc1ccccc1)NC(=O)[C@@H](NC(=O)CN)C(C)C)C(=O)N[C@@H](CC1CCCCC1)C(=O)N[C@@H](C)C(=O)O (H-GVFI[Cha]A-OH) |  | inactive | 
25 | CSCC[C@H](N)C(=O)N[C@@H](CCCNC(=N)N)C(=O)N[C@H](C(=O)N[C@@H](CCCNC(=N)N)C(=O)N[C@H](C(=O)N[C@@H](CCCNC(=N)N)C(=O)O)[C@@H](C)O[C@H]1O[C@H](CO)[C@@H](O[C@@H]2O[C@H](CO)[C@H](O)[C@H](O)[C@H]2O)[C@H](O)[C@H]1O)[C@@H](C)O[C@H]1O[C@H](CO)[C@@H](O[C@@H]2O[C@H](CO)[C@H](O)[C@H](O)[C@H]2O)[C@H](O)[C@H]1O | inactive |  | 
26 | CC[C@H](C)[C@H](NC(=O)[C@H](Cc1ccccc1)NC(=O)[C@@H]1CCCN1)C(=O)N[C@@H](CC1CCCCC1)C(=O)N[C@@H](Cc1ccccc1)C(=O)N[C@@H](CCC(N)=O)C(=O)O |  | 14% | 
